In patent publication US20110245159A1, “Salts, Solvates and Pharmaceutical Compositions of Macrocyclic Ghrelin Receptor Agonists and Methods of Using the Same” (priority 2009, published 2011):

What was measured:
[1] = Dynamic vapor sorption/desorption (DVS) hygroscopicity; type: physicochemical
Protocol: The hygroscopicity of salts, solvates and polymorphs of the invention can be assessed by both static and dynamic hygroscopicity studies. For the latter, dynamic vapor sorption/desorption (DVS) experiments can be performed on an SGA-100 gravimetric sorption analyzer (or similar). The experimental protocol typically included full weight equilibrium at 0% RH.
The hygroscopicity of compound 298.HCl.H2O was assessed by both static and dynamic vapor sorption/desorption (DVS) experiments were performed at 25° C. according to Method 4M.

[2] = Static hygroscopicity study; type: physicochemical; conditions: 3 months, 80% RH, 25° C.
Protocol: The static hygroscopicity study was performed by exposing compound 298.HCl.H2O for a period of 3 months to 80% RH humidity at 25° C. […] The sample was analyzed at 1-week, 1-month, 2-month and 3-month time points by the following methods: DSC, thermogravimetric analysis and Karl-Fischer titrimetry.

[3] = Stability testing of compound 298.HCl.H2O at storage conditions; type: physicochemical
Description: For determining the stability of an active pharmaceutical ingredient (API) or a pharmaceutical composition, the approach as outlined for regulatory purposes in International Conference on Harmonisation of Technical Requirements for Registration of Pharmaceuticals for Human Use (ICH) Q1A Guideline: Stability Testing of New Drug Substances and Products, February 2003, can be followed. In summary, this entails repetition of certain analytical tests on samples stored at three representative controlled conditions to ascertain whether or not any degradation or loss of potency has occurred. The typical conditions employed are: (1) 25° C.±2° C., 60%±5% relative humidity (RH); (2) 30° C.±2° C., 65%±5% RH; (3) 40° C.±2° C., 75%±5% RH (often termed accelerated stability). The photostability as outlined in International Conference on Harmonisation of Technical Requirements for Registration of Pharmaceuticals for Human Use (ICH) Q1B Guideline: Stability Testing: Photostability Testing of New Drug Substances and Products, November 1996, is typically also investigated.
The purpose of this procedure is to determine the purity of representative salts, solvates and polymorphs of the invention by reverse phase HPLC. Any appropriate detection method compatible with HPLC can be utilized, such as single or dual wavelength ultraviolet (UV) detection, evaporative light scattering detection (ELSD) or chemiluminescent nitrogen detection (CLND). For most cases, UV detection would be preferred. Purity can be determined by peak area %. The same assay conditions are used to determine the level of impurities and the potency. The parameters for this HPLC assay are delineated below.
Moisture level is determined by Karl Fischer titrimetry using the direct titration method, in accordance with USP <921 1a>.

[4] = rat, in vivo, sc
Protocol: Formulations A, B-1, B-2 and B-3 were administered to male Sprague-Dawley rats subcutaneously (sc) at a dosing volume of 5 mL/kg.
Blood was collected via the JVC into tubes containing sodium EDTA (NaEDTA) and placed on ice until centrifugation. Samples were centrifuged at 13,000 rpm for 5 min with the temperature maintained at 4° C. Plasma was separated and stored frozen on dry ice prior to analysis.
The pharmacokinetic (PK) parameters for each animal were calculated using non-compartmental modeling (extravascular input model) and WinNonlin software (version 5.2, Pharsight). The half-life (t1/2), Area Under the Concentration Versus Time Curve from time 0 to the last quantifiable point (AUC0-t) and to infinity (AUC0-∞) were calculated and the observed Cmax and Tmax tabulated for each animal and dose group. […] The terminal elimination rate constant was calculated for the purpose of obtaining the extrapolated AUC0-∞ values.

GH secretion = conditions: animal models; cited from earlier work
[5] = humans, unspecified formulation; cited from earlier work
POI = conditions: unspecified formulation; cited from earlier work
diabetic gastroparesis = conditions: unspecified formulation; cited from earlier work
[6] = Solubility of compound 298 salts, HPLC-CLND; conditions: 20 mg compound 298 + 0.5 mL aqueous acid (1.1 eq), agitated 72 h
Protocol: The pH of the solution was then measured and the amount of dissolved salt determined by HPLC-CLND analysis.

[7] = Batch 1, 25° C., 60% RH, 12 mos
[8] = Batch 1, 25° C., 60% RH, 18 mos
[9] = Batch 1, 25° C., 60% RH, 24 mos
[10] = Example 3, 25° C., 60% RH, 0 mos
[11] = Example 3, 25° C., 60% RH, 3 mos
[12] = Example 3, 25° C., 60% RH, 6 mos
[13] = Example 3, 25° C., 60% RH, 9 mos
[14] = Example 3, 25° C., 60% RH, 12 mos
[15] = Example 3, 25° C., 60% RH, 18 mos
[16] = Example 3, 40° C., 75% RH, 0 mos
[17] = Example 3, 40° C., 75% RH, 1 mos
[18] = Example 3, 40° C., 75% RH, 3 mos
[19] = Example 3, 40° C., 75% RH, 6 mos

## CC1CNC(C2CC2)C(=O)N(C)C(C)C(=O)NC(Cc2ccc(F)cc2)C(=O)NCCCc2ccccc2O1.Cl.O (stereo not drawn) [Compound 298•HCl•H2O]
[1]
  Hygroscopicity: Non-hygroscopic
[1]; DVS, 25° C.
  Hygroscopicity: essentially non-hygroscopic
[1]; DVS, 25° C., 20%-90% relative humidity range
  Weight change: 1%
[1]; DVS, 25° C., equilibration at 0% RH
  Weight loss (lattice water lost): 2.6%
[2]
  Deliquescence: No deliquescence was detected
[2]; static study
  Hygroscopicity: essentially non-hygroscopic
[3]; Batch 1, 5° C., 0 mos
  HPLC Assay (% Purity): 100.48%
  Total Impurities (%): 0.41%
[3]; Batch 1, 5° C., 3 mos
  HPLC Assay (% Purity): 98.72%
  Total Impurities (%): 0.39%
[3]; Batch 1, 5° C., 6 mos
  HPLC Assay (% Purity): 98.48%
  Total Impurities (%): 0.42%
[3]; Batch 1, 5° C., 9 mos
  HPLC Assay (% Purity): 100.78%
  Total Impurities (%): 0.47%
[3]; Batch 1, 5° C., 12 mos
  HPLC Assay (% Purity): 98.19%
  Total Impurities (%): 0.42%
[3]; Batch 1, 5° C., 18 mos
  HPLC Assay (% Purity): 98.68%
  Total Impurities (%): 0.43%
[3]; Batch 1, 5° C., 24 mos
  HPLC Assay (% Purity): 100.15%
  Total Impurities (%): 0.43%
[3]; Batch 1, 25° C., 60% RH, 0 mos
  HPLC Assay (% Purity): 100.48%
  Total Impurities (%): 0.41%
[3]; Batch 1, 25° C., 60% RH, 1 mos
  HPLC Assay (% Purity): 98.99%
  Total Impurities (%): 0.40%
[3]; Batch 1, 25° C., 60% RH, 3 mos
  HPLC Assay (% Purity): 98.39%
  Total Impurities (%): 0.40%
[3]; Batch 1, 25° C., 60% RH, 6 mos
  HPLC Assay (% Purity): 98.81%
  Total Impurities (%): 0.42%
[3]; Batch 1, 25° C., 60% RH, 9 mos
  HPLC Assay (% Purity): 100.65%
  Total Impurities (%): 0.46%
[3]; [7]
  HPLC Assay (% Purity): 97.59%
  Total Impurities (%): 0.49%
[3]; [8]
  HPLC Assay (% Purity): 99.81%
  Total Impurities (%): 0.21%
[3]; [9]
  HPLC Assay (% Purity): 100.24%
  Total Impurities (%): 0.48%
[3]; Batch 1, 40° C., 75% RH, 0 mos
  HPLC Assay (% Purity): 100.48%
  Total Impurities (%): 0.41%
[3]; Batch 1, 40° C., 75% RH, 1 mos
  HPLC Assay (% Purity): 98.49%
  Total Impurities (%): 0.39%
[3]; Batch 1, 40° C., 75% RH, 3 mos
  HPLC Assay (% Purity): 98.22%
  Total Impurities (%): 0.40%
[3]; Batch 1, 40° C., 75% RH, 6 mos
  HPLC Assay (% Purity): 98.41%
  Total Impurities (%): 0.44%
[3]; [10]
  HPLC Assay (% Purity): 99.9%
  Potency Assay (HPLC wt %): 89.1 wt %
  Total Impurities (%): 0.06%
  Water Content (%): 3.9%
[3]; [11]
  HPLC Assay (% Purity): 99.9%
  Potency Assay (HPLC wt %): 90.2 wt %
  Total Impurities (%): 0.12%
  Water Content (%): 4.2%
[3]; [12]
  HPLC Assay (% Purity): 99.9%
  Potency Assay (HPLC wt %): 90.1 wt %
  Total Impurities (%): 0.07%
  Water Content (%): 4.1%
[3]; [13]
  HPLC Assay (% Purity): 99.9%
  Potency Assay (HPLC wt %): 90.5 wt %
  Total Impurities (%): 0.06%
  Water Content (%): 4.3%
[3]; [14]
  HPLC Assay (% Purity): 99.9%
  Potency Assay (HPLC wt %): 89.9 wt %
  Total Impurities (%): 0.06%
  Water Content (%): 3.1%
[3]; [15]
  HPLC Assay (% Purity): 99.8%
  Potency Assay (HPLC wt %): 89.8 wt %
  Total Impurities (%): 0.07%
  Water Content (%): 4.0%
[3]; [16]
  HPLC Assay (% Purity): 99.9%
  Potency Assay (HPLC wt %): 89.1 wt %
  Total Impurities (%): 0.06%
  Water Content (%): 3.9%
[3]; [17]
  HPLC Assay (% Purity): 99.8%
  Potency Assay (HPLC wt %): 88.4 wt %
  Total Impurities (%): 0.18%
  Water Content (%): 3.5%
[3]; [18]
  HPLC Assay (% Purity): 99.9%
  Potency Assay (HPLC wt %): 92.1 wt %
  Total Impurities (%): 0.12%
  Water Content (%): 3.7%
[3]; [19]
  HPLC Assay (% Purity): 99.9%
  Potency Assay (HPLC wt %): 89.6 wt %
  Total Impurities (%): 0.07%
  Water Content (%): 4.2%
[3]; Example 3, both storage conditions after 6 months
  XRPD analysis: still consistent with the standard pattern
[3]; Example 3, over the 6 month period
  Appearance as a white powder: remained unchanged
[4]
  AUC0-∞ dependence on dose: increased proportionally with dose
  Increase in Cmax with dose: less than dose-proportional

## C[C@@H]1CN[C@@H](C2CC2)C(=O)N(C)[C@H](C)C(=O)N[C@H](Cc2ccc(F)cc2)C(=O)NCCCc2ccccc2O1 [compound 298]
GH secretion
  Concurrent GH secretion: did not stimulate concurrent GH secretion
[5]
  Safety and pharmacokinetic properties: appropriate safety and pharmacokinetic properties
POI
  Efficacy for the treatment of POI: efficacy
Diabetic gastroparesis
  Efficacy for the treatment of diabetic gastroparesis: efficacy

## Fumarate
[6]
  pH at 72 hr: 3.6
